Data from patent US20230398130A1, “METHODS AND COMPOSITIONS FOR DIFFERENTIATING STEM CELLS” (Massachusetts Institute of Technology, priority 2020, published 2023).

Columns and labels:
ISC-enriched organoids [1] = experiment: Primary screen, 384-well 2.5-D organoid differentiation (ENR+CD, 6 days, Target Selective Inhibitor Library, vs whole-plate median): ATP (CellTiter-Glo 3D, CTG); settings: for Dose.FC.CTG: ENR+CD 6 days, FC vs plate median; for Z.CTG: standard z score of FC; for SSMD.CTG: strictly standardized mean difference; for Dose.FC.CTG (log 2 fold change): vs plate median
ISC-enriched organoids [2] = experiment: Primary screen, 384-well 2.5-D organoid differentiation (ENR+CD, 6 days): carbachol-induced lysozyme secretion (LYZ.S); format: cell-based, murine; settings: for Dose.FC.LYZ.S / Z.LYZ.S / SSMD.LYZ.S / Dose.FC.LYZ.S (log 2 fold change): primary screen; for Dose.FC.LYZ.S: ENR+CD 6 days, FC vs plate median; for Z.LYZ.S: standard z score; for SSMD.LYZ.S: strictly standardized mean difference; for Dose.FC.LYZ.S (log 2 fold change): vs plate median
Text: (§1) High-throughput screening.

ISC-enriched organoids [3] = experiment: Primary screen, 384-well 2.5-D organoid differentiation (ENR+CD, 6 days): basal lysozyme secretion (LYZ.NS); format: cell-based, murine; settings: for Dose.FC.LYZ.NS / Z.LYZ.NS / SSMD.LYZ.NS / Z.LYZ.NS (standard z score) / Dose.FC.LYZ.NS (log 2 fold change): primary screen; for Dose.FC.LYZ.NS: ENR+CD 6 days, FC vs plate median; for Z.LYZ.NS: standard z score of FC; for SSMD.LYZ.NS: strictly standardized mean difference; for Dose.FC.LYZ.NS (log 2 fold change): vs plate median
Text: as §1

[4] = dose 0.08 uM (1st of 4 lines per treatment; dose not printed in this part)
[5] = dose 0.40 uM (2nd of 4 lines per treatment; dose not printed in this part)
[6] = dose 2.00 uM (3rd of 4 lines per treatment; dose not printed in this part)
[7] = dose 10.00 uM (4th of 4 lines per treatment; dose not printed in this part)
[8] = 1st of the 4 dose lines of the treatment (dose not given)
[9] = 2nd of the 4 dose lines of the treatment (dose not given)
[10] = 3rd of the 4 dose lines of the treatment (dose not given)
[11] = 4th of the 4 dose lines of the treatment (dose not given)

N#Cc1c(O)c2c(-c3ccc(-c4ccccc4O)cc3)csc2[nH]c1=O [A-769662]
SSMD.CTG_Rep (strictly standardized mean difference) (ISC-enriched organoids [1]; [4]): −0.255 | SSMD.CTG_Rep (strictly standardized mean difference) (ISC-enriched organoids [1]; [5]): 0.019 | SSMD.CTG_Rep (strictly standardized mean difference) (ISC-enriched organoids [1]; [6]): −0.312 | SSMD.CTG_Rep (strictly standardized mean difference) (ISC-enriched organoids [1]; [7]): −0.056 | Dose.FC.CTG (ISC-enriched organoids [1]; primary screen, dose 0.08 uM): −0.074 log 2 fold change | Z.CTG (ISC-enriched organoids [1]; primary screen, dose 0.08 uM): −0.177 | Dose.FC.CTG (ISC-enriched organoids [1]; primary screen, dose 0.40 uM): 0.007 log 2 fold change | Z.CTG (ISC-enriched organoids [1]; primary screen, dose 0.40 uM): 0.016 | Dose.FC.CTG (ISC-enriched organoids [1]; primary screen, dose 2.00 uM): −0.127 log 2 fold change | Z.CTG (ISC-enriched organoids [1]; primary screen, dose 2.00 uM): −0.304 | Dose.FC.CTG (ISC-enriched organoids [1]; primary screen, dose 10.00 uM): −0.015 log 2 fold change | Z.CTG (ISC-enriched organoids [1]; primary screen, dose 10.00 uM): −0.036 | SSMD.LYZ.S_Rep (strictly standardized mean difference) (ISC-enriched organoids [2]; [4]): 0.365 | Z.LYZ.S (standard z score) (ISC-enriched organoids [2]; [4]): 0.426 | SSMD.LYZ.S_Rep (strictly standardized mean difference) (ISC-enriched organoids [2]; [5]): 0.472 | Z.LYZ.S (standard z score) (ISC-enriched organoids [2]; [5]): 0.460 | SSMD.LYZ.S_Rep (strictly standardized mean difference) (ISC-enriched organoids [2]; [6]): 0.488 | Z.LYZ.S (standard z score) (ISC-enriched organoids [2]; [6]): 1.191 | SSMD.LYZ.S_Rep (strictly standardized mean difference) (ISC-enriched organoids [2]; [7]): 0.119 | Z.LYZ.S (standard z score) (ISC-enriched organoids [2]; [7]): 0.121 | Dose.FC.LYZ.S (ISC-enriched organoids [2]; dose 0.08 uM): 0.066 log 2 fold change | Dose.FC.LYZ.S (ISC-enriched organoids [2]; dose 0.40 uM): 0.071 log 2 fold change | Dose.FC.LYZ.S (ISC-enriched organoids [2]; dose 2.00 uM): 0.184 log 2 fold change | Dose.FC.LYZ.S (ISC-enriched organoids [2]; dose 10.00 uM): 0.019 log 2 fold change | SSMD.LYZ.NS_Rep (strictly standardized mean difference) (ISC-enriched organoids [3]; [4]): 0.286 | SSMD.LYZ.NS_Rep (strictly standardized mean difference) (ISC-enriched organoids [3]; [5]): 0.498 | SSMD.LYZ.NS_Rep (strictly standardized mean difference) (ISC-enriched organoids [3]; [6]): 0.554 | SSMD.LYZ.NS_Rep (strictly standardized mean difference) (ISC-enriched organoids [3]; [7]): 0.068 | Dose.FC.LYZ.NS (ISC-enriched organoids [3]; dose 0.08 uM): 0.045 log 2 fold change | Z.LYZ.NS (ISC-enriched organoids [3]; dose 0.08 uM): 0.394 | Dose.FC.LYZ.NS (ISC-enriched organoids [3]; dose 0.40 uM): 0.069 log 2 fold change | Z.LYZ.NS (ISC-enriched organoids [3]; dose 0.40 uM): 0.599 | Dose.FC.LYZ.NS (ISC-enriched organoids [3]; dose 2.00 uM): 0.054 log 2 fold change | Z.LYZ.NS (ISC-enriched organoids [3]; dose 2.00 uM): 0.473 | Dose.FC.LYZ.NS (ISC-enriched organoids [3]; dose 10.00 uM): 0.009 log 2 fold change | Z.LYZ.NS (ISC-enriched organoids [3]; dose 10.00 uM): 0.075

COc1ccnc2[nH]cc(C(=O)C(=O)N3CCN(C(=O)c4ccccc4)C[C@H]3C)c12 [BMS-378806]
Dose.FC.CTG (ISC-enriched organoids [1]; primary screen, dose 0.08 uM): 0.233 log 2 fold change | Z.CTG (ISC-enriched organoids [1]; primary screen, dose 0.08 uM): 0.557 | Dose.FC.CTG (ISC-enriched organoids [1]; primary screen, dose 0.40 uM): 0.102 log 2 fold change | Z.CTG (ISC-enriched organoids [1]; primary screen, dose 0.40 uM): 0.243 | Dose.FC.CTG (ISC-enriched organoids [1]; primary screen, dose 2.00 uM): −0.289 log 2 fold change | Z.CTG (ISC-enriched organoids [1]; primary screen, dose 2.00 uM): −0.691 | Dose.FC.CTG (ISC-enriched organoids [1]; primary screen, dose 10.00 uM): −1.155 log 2 fold change | Z.CTG (ISC-enriched organoids [1]; primary screen, dose 10.00 uM): −2.758 | Dose.FC.LYZ.S (ISC-enriched organoids [2]; dose 0.08 uM): 0.159 log 2 fold change | Dose.FC.LYZ.S (ISC-enriched organoids [2]; dose 0.40 uM): 0.007 log 2 fold change | Dose.FC.LYZ.S (ISC-enriched organoids [2]; dose 2.00 uM): −0.142 log 2 fold change | Dose.FC.LYZ.S (ISC-enriched organoids [2]; dose 10.00 uM): −0.322 log 2 fold change | Dose.FC.LYZ.NS (ISC-enriched organoids [3]; dose 0.08 uM): 0.141 log 2 fold change | Z.LYZ.NS (ISC-enriched organoids [3]; dose 0.08 uM): 1.231 | Dose.FC.LYZ.NS (ISC-enriched organoids [3]; dose 0.40 uM): −0.007 log 2 fold change | Z.LYZ.NS (ISC-enriched organoids [3]; dose 0.40 uM): −0.061 | Dose.FC.LYZ.NS (ISC-enriched organoids [3]; dose 2.00 uM): −0.100 log 2 fold change | Z.LYZ.NS (ISC-enriched organoids [3]; dose 2.00 uM): −0.870 | Dose.FC.LYZ.NS (ISC-enriched organoids [3]; dose 10.00 uM): −0.227 log 2 fold change | Z.LYZ.NS (ISC-enriched organoids [3]; dose 10.00 uM): −1.977

Nc1nc(CC(=O)Nc2ccc(CCNC[C@H](O)c3ccccc3)cc2)cs1 [Mirabegron]
Z.CTG (ISC-enriched organoids [1]; Dose 0.08 uM): 0.069 | Z.CTG (ISC-enriched organoids [1]; Dose 0.40 uM): −0.801 | Z.CTG (ISC-enriched organoids [1]; Dose 2.00 uM): 0.046 | Z.CTG (ISC-enriched organoids [1]; Dose 10.00 uM): −0.123 | SSMD.CTG (ISC-enriched organoids [1]; primary screen, 1st of the 4 dose lines of the treatment (dose not given)): 0.101 | SSMD.CTG (ISC-enriched organoids [1]; primary screen, 2nd of the 4 dose lines of the treatment (dose not given)): −0.380 | SSMD.CTG (ISC-enriched organoids [1]; primary screen, 3rd of the 4 dose lines of the treatment (dose not given)): 0.068 | SSMD.CTG (ISC-enriched organoids [1]; primary screen, 4th of the 4 dose lines of the treatment (dose not given)): −0.150 | Z.LYZ.S (ISC-enriched organoids [2]; [8]): 0.958 | Z.LYZ.S (ISC-enriched organoids [2]; [9]): −0.103 | Z.LYZ.S (ISC-enriched organoids [2]; [10]): −0.317 | Z.LYZ.S (ISC-enriched organoids [2]; [11]): −0.065 | SSMD.LYZ.S (ISC-enriched organoids [2]; [8]): 0.863 | SSMD.LYZ.S (ISC-enriched organoids [2]; [9]): −0.090 | SSMD.LYZ.S (ISC-enriched organoids [2]; [10]): −0.363 | SSMD.LYZ.S (ISC-enriched organoids [2]; [11]): −0.064 | SSMD.LYZ.NS (ISC-enriched organoids [3]; [8]): 1.039 | SSMD.LYZ.NS (ISC-enriched organoids [3]; [9]): −0.280 | SSMD.LYZ.NS (ISC-enriched organoids [3]; [10]): −0.346 | SSMD.LYZ.NS (ISC-enriched organoids [3]; [11]): 0.113

Cn1cnc2c(F)c(Nc3ccc(Br)cc3Cl)c(C(=O)NOCCO)cc21 [Selumetinib (AZD6244)]
Z.CTG (standard z score) (ISC-enriched organoids [1]; Dose 0.08 uM, primary screen): 0.393 | Dose.FC.CTG (log 2 fold change) (ISC-enriched organoids [1]; Dose 0.08 uM, primary screen): 0.164 | Z.CTG (standard z score) (ISC-enriched organoids [1]; Dose 0.40 uM, primary screen): −0.395 | Dose.FC.CTG (log 2 fold change) (ISC-enriched organoids [1]; Dose 0.40 uM, primary screen): −0.165 | Z.CTG (standard z score) (ISC-enriched organoids [1]; Dose 2.00 uM, primary screen): −0.613 | Dose.FC.CTG (log 2 fold change) (ISC-enriched organoids [1]; Dose 2.00 uM, primary screen): −0.257 | Z.CTG (standard z score) (ISC-enriched organoids [1]; Dose 10.00 uM, primary screen): −2.035 | Dose.FC.CTG (log 2 fold change) (ISC-enriched organoids [1]; Dose 10.00 uM, primary screen): −0.852 | Dose.FC.LYZ.S (log 2 fold change) (ISC-enriched organoids [2]; Dose 0.08 uM): 0.004 | Dose.FC.LYZ.S (log 2 fold change) (ISC-enriched organoids [2]; Dose 0.40 uM): −0.047 | Dose.FC.LYZ.S (log 2 fold change) (ISC-enriched organoids [2]; Dose 2.00 uM): −0.175 | Dose.FC.LYZ.S (log 2 fold change) (ISC-enriched organoids [2]; Dose 10.00 uM): −0.211 | Z.LYZ.NS (standard z score) (ISC-enriched organoids [3]; Dose 0.08 uM): 0.181 | Dose.FC.LYZ.NS (log 2 fold change) (ISC-enriched organoids [3]; Dose 0.08 uM): 0.021 | Z.LYZ.NS (standard z score) (ISC-enriched organoids [3]; Dose 0.40 uM): −0.188 | Dose.FC.LYZ.NS (log 2 fold change) (ISC-enriched organoids [3]; Dose 0.40 uM): −0.022 | Z.LYZ.NS (standard z score) (ISC-enriched organoids [3]; Dose 2.00 uM): −0.847 | Dose.FC.LYZ.NS (log 2 fold change) (ISC-enriched organoids [3]; Dose 2.00 uM): −0.097 | Z.LYZ.NS (standard z score) (ISC-enriched organoids [3]; Dose 10.00 uM): −1.220 | Dose.FC.LYZ.NS (log 2 fold change) (ISC-enriched organoids [3]; Dose 10.00 uM): −0.140
